According to paper PMC9368981, “The γ-Core Motif Peptides of AMPs from Grasses Display Inhibitory Activity against Human and Plant Pathogens” (International Journal of Molecular Sciences, 2022):
Where a SMILES comes first, the peptide text is derived from it.

Tests used:
Cr. neoformans cells [1] = experiment: Propidium iodide penetration, flow cytometry; type: cell-based, Cryptococcus neoformans; details: 28 °C, 2 h
Experimental: (§1) Their ability to disturb the integrity of pathogen membranes was assayed by staining with propidium iodide of C. albicans and Cr. neoformans cells preliminarily incubated with the peptides. The results were visualized by fluorescent microscopy and quantified by flow cytometry (Figure 5, Figure 6 and Figure 7).
For flow cytometry experiments with Cr. neoformans, the yeasts were grown on the YPD medium at 28 °C for 48 h. After that, the cells were centrifuged at 12,000× g for 3 min, washed with MiliQ water and incubated with the peptides dissolved in water at a concentration of 300 µM at 28 °C for 2 h. The cells were stained with propidium iodide by direct addition of the dye to the incubation medium (final concentration of 2 µg/mL) and measured on a NovoCyte Flow cytometer (Agilent, Santa Clara, CA, USA) using the channel FL2 (488 nm excitation and 585 nm emission). The sample without peptides was used as a control.

Cr. neoformans cells [2] = experiment: Propidium iodide staining, fluorescence microscopy; type: cell-based, Cryptococcus neoformans; details: peptide 300 µM, 30 °C, 1 h, 0.03 mM PI 15 min
Experimental: as §1
(§2) Staining of yeast cells with propidium iodide in the presence of the γ-core peptides was carried out according to the protocol described earlier. C. albicans or Cr. neoformans cells (24 h culture in YPD-P at a cell concentration of 2 × 10^8/mL) were incubated with the peptide at a concentration of 300 µM at 30 °C for 1 h. After incubation, 1 mL of the cells was stained with 0.03 mM propidium iodide (Sigma, St. Louis, MO, USA). The staining proceeded for 15 min at 30 °C. The fluorescence was recorded on an AXIO Imager A1 fluorescence microscope (ZEISS, Göttingen, Germany) using a Zeiss filter set 56 HE.

[3] = test system: Pectobacterium carotovorum subsp. carotovorum VKM B-1247; details: 300 µM peptide; modified YPD-P medium, 30 °C, 24 h, absorbance 594 nm; vs control without peptide; triplicate, mean
Experimental: All cultures were obtained from the All-Russian Collection of Microorganisms (VKM).
Mean values, standard deviations (SD), and the significance of differences (p ≤ 0.05) of the means between treatments and controls (t-test for independent variables) were determined using […] v. 6.1 software (StatSoft Inc., Tulsa, OK, USA).

[4] = test system: Cryptococcus neoformans VKM Y-2755; type: cell-based
Experimental: (§3) The antimicrobial activity of synthetic peptides was tested against a panel of human and plant pathogens. Among them were the yeasts Candida albicans VKM Y-2994 and Cryptococcus neoformans VKM Y-2755, the plant pathogenic bacteria Clavibacter michiganensis subsp. michiganensis VKM Ac-1403, Pseudomonas savastanoi pv. savastanoi VKM B-1546 and Pectobacterium carotovorum subsp. carotovorum VKM B-1247, and four Fusarium species (F. oxysporum VKM F-137, F. culmorum VKM F-2303, F. solani VKM F-142 and F. verticillioides VKM F-670), which cause diseases in plants and humans. The antimicrobial activity was first measured at the peptide concentration of 300 µM (Figure 3).
(§4) The antimicrobial activity of synthetic peptides was tested against the yeasts Candida albicans VKM Y-2994 and Cryptococcus neoformans VKM Y-2755, the bacteria Pseudomonas savastanoi pv. savastanoi VKM B-1546, Pectobacterium carotovorum subsp. carotovorum VKM B-1247 and Clavibacter michiganensis subsp. michiganensis VKM Ac-1403, and four Fusarium species: F. culmorum VKM F-2303, F. oxysporum VKM F-137, F. solani VKM F-142 and F. verticillioides VKM F-670. All cultures were obtained from the All-Russian Collection of Microorganisms (VKM). The details of the production and storage of cultures of microorganisms used in this study are described at the VKM Home page. Antimicrobial assays were accomplished according to the procedure described earlier. In short, yeasts were grown on the YPD-P medium and the bacteria P. carotovorum and Cl. michiganensis were cultured on a modified YPD-P medium. The Fusarium fungi were grown on potato dextrose agar at 25 °C for 7–8 days, and spores were washed off from the surface of the mycelia with sterile, distilled water. The antimicrobial activity of the peptides was measured in immunoassay microtiter plates according to the protocol of Broekaert et al.. With yeasts and bacteria, each well contained 10 µL of the tested peptide solution (final concentrations of 10–300 µM) in water, 80 µL of the medium and 10 µL of the microbial suspension. The plates were incubated at 30 °C for 24 h, and the absorbance of the suspension was measured on an Efos 9305 spectrophotometer (Sapphire, Moscow, Russia) at 594 nm. For Fusarium species, the wells of a microtiter plate were filled with 90 µL of the fungal spore suspension in half-strength potato dextrose broth at a concentration of 2000–3000 spores in 100 µL and 10 µL of aqueous solutions of peptides at final concentrations of 10–300 µM. After 38 h of incubation, the absorbance was recorded at 595 nm on a FilterMax F5 Multi-Mode Microplate Reader (Molecular Devices, San Jose, CA, USA). Antimicrobial activity is expressed in IC50 values, which show the concentration necessary for 50% inhibition of the pathogen growth; this was determined from a graph showing the activity dependence on peptide concentration.
(§5) For each pathogen, experiments on the peptide antimicrobial activity evaluation were carried out in triplicate per treatment. Mean values, standard deviations (SD), and the significance of differences (p ≤ 0.05) of the means between treatments and controls (t-test for independent variables) were determined using STATISTICA v. 6.1 software (StatSoft Inc., Tulsa, OK, USA).

[5] = test system: Pseudomonas savastanoi pv. savastanoi VKM B-1546; type: cell-based; details: 30 °C, 24 h, absorbance 594 nm
Experimental: as §3, §4, §5

[6] = test system: Candida albicans VKM Y-2994; type: cell-based
Experimental: as §3, §4, §5

[7] = test system: F. verticillioides VKM F-670; type: cell-based, Fusarium verticillioides
Experimental: as §3, §4, §5

C. albicans cells = experiment: Propidium iodide staining, fluorescence microscopy; type: cell-based, Candida albicans; details: peptide 300 µM, 30 °C, 1 h, 0.03 mM PI 15 min
Experimental: as §1, §2

[8] = test system: Clavibacter michiganensis subsp. michiganensis VKM Ac-1403; experiment: Growth inhibition of Cl. michiganensis in microtiter plates; type: cell-based; details: inhibition curves (Figure 4)
Experimental: as §3
The antimicrobial activity of synthetic peptides was tested against the yeasts Candida albicans VKM Y-2994 and Cryptococcus neoformans VKM Y-2755, the bacteria Pseudomonas savastanoi pv. savastanoi VKM B-1546, Pectobacterium carotovorum subsp. carotovorum VKM B-1247 and Clavibacter michiganensis subsp. michiganensis VKM Ac-1403, and four Fusarium species: F. culmorum VKM F-2303, F. oxysporum VKM F-137, F. solani VKM F-142 and F. verticillioides VKM F-670. All cultures were obtained from the All-Russian Collection of Microorganisms (VKM). […] The antimicrobial activity of the peptides was measured in immunoassay microtiter plates according to the protocol of Broekaert et al.. […] The plates were incubated at 30 °C for 24 h, and the absorbance of the suspension was measured on an Efos 9305 spectrophotometer (Sapphire, Moscow, Russia) at 594 nm. […] After 38 h of incubation, the absorbance was recorded at 595 nm on a FilterMax F5 Multi-Mode Microplate Reader (Molecular Devices, San Jose, CA, USA). […]
as §5, with “6.1 software (StatSoft Inc., Tulsa, OK, USA).” left out

[9] = inhibition curves (Figure 4), highest tested concentration (300 µM)

Row | IC50 ([4]; peptide 10–300 µM, 30 °C, 24 h, absorbance 594 nm, from activity vs concentration graph, mean ± SD, read-out: IC50, μM Cr. neoformans) | IC50 ([5]; peptide 10–300 µM, from activity vs concentration graph, mean ± SD, read-out: IC50, μM Ps. savastanoi) | IC50 ([6]; peptide 10–300 µM, 30 °C, 24 h, absorbance 594 nm, from activity vs concentration graph, mean ± SD) | IC50 ([7]; peptide 10–300 µM, 38 h, absorbance 595 nm, from activity vs concentration graph, mean ± SD) | SMILES | Penetration of propidium iodide (PI) into Cr. neoformans cells (Cr. neoformans cells [1]; peptide 300 µM in water, PI 2 µg/mL, FL2 (488/585 nm)) | Number of Cr. neoformans cells in flow cytometry (Cr. neoformans cells [1]; peptide 300 µM) | Membrane permeabilization of Cr. neoformans cells (PI staining) (Cr. neoformans cells [2]) | Pathogen inhibition, % (P. carotovorum) [3] | Inhibition of Cr. neoformans at the highest tested concentration [4, 9] | Inhibition of C. albicans at the highest tested concentration [6, 9] | Maximum inhibition of F. verticillioides at 150 µM ([7]; inhibition curves (Figure 4), peptide 150 µM) | Membrane permeabilization of C. albicans cells (PI staining) (C. albicans cells) | Inhibition of Cl. michiganensis at the highest tested concentration ([8]; highest tested concentration of 300 µM) | Inhibition of Cr. neoformans at 50 µM ([4]; inhibition curves (Figure 4), peptide 50 µM) | Pathogen inhibition, % (Ps. savastanoi) ([5]; 300 µM peptide, vs control without peptide, triplicate, mean) | Inhibition of Cl. michiganensis at 100 µM ([8]; peptide 100 µM)
1 | > 100 µM | > 100 µM | > 100 µM | > 100 µM | C[C@H](NC(=O)[C@H](CCCNC(=N)N)NC(=O)CNC(=O)[C@@H](NC(=O)[C@H](Cc1ccc(O)cc1)NC(=O)[C@@H]1CCCN1C(=O)[C@H](CCCNC(=N)N)NC(=O)CNC(=O)[C@H](CCCNC(=N)N)NC(=O)[C@H](C)NC(=O)[C@@H]1CCCN1C(=O)[C@@H](N)CS)[C@@H](C)O)C(=O)N[C@@H](CS)C(=O)O [DEFL4-37_90-102] (H-CPARGRPYTGRAC-OH; N-terminus and C-terminus assumed) | 68.48% | reduction in the number of Cr. neoformans cells | induced membrane permeabilization | 36% | 100% | about 35% | about 35% | induced membrane permeabilization | – | – | – | –
2 | – | – | – | – | CC(C)C[C@H](NC(=O)[C@H](CCCNC(=N)N)NC(=O)[C@H](C)NC(=O)[C@H](CS)NC(=O)[C@H](CS)NC(=O)CNC(=O)[C@@H]1CCCN1)C(=O)N[C@@H](CCCNC(=N)N)C(=O)N[C@@H](C)C(=O)N[C@@H](CCC(N)=O)C(=O)N[C@@H](CCCNC(=N)N)C(=O)N[C@@H](C)C(=O)N[C@@H](CS)C(=O)O [TkLTP2.25_50-62] (H-PGCCARLRAQRAC-OH; N-terminus and C-terminus assumed) | – | – | induced membrane permeabilization | – | – | – | – | induced membrane permeabilization | 95% | – | – | –
3 | – | – | – | – | C[C@H](NC(=O)[C@H](CCCNC(=N)N)NC(=O)[C@H](CCCCN)NC(=O)[C@H](CS)NC(=O)[C@H](Cc1ccccc1)NC(=O)[C@H](CS)NC(=O)[C@H](CCCCN)NC(=O)[C@H](CCCNC(=N)N)NC(=O)[C@H](C)NC(=O)[C@H](Cc1ccccc1)NC(=O)[C@H](CC(N)=O)NC(=O)[C@H](Cc1c[nH]cn1)NC(=O)[C@@H](NC(=O)[C@H](Cc1c[nH]cn1)NC(=O)[C@H](CS)NC(=O)[C@H](CCC(=O)O)NC(=O)CN)[C@@H](C)O)C(=O)N[C@@H](CS)C(=O)O [DEFL1-36_65-82] (H-GECHTHNFARKCFCKRAC-OH; N-terminus and C-terminus assumed) | – | – | – | – | – | – | – | – | – | complete inhibition | failed to suppress | complete inhibition
